Among the data in the OPERA property sets (Mansouri et al. 2018) are solubility values, retold here.

Converted amounts (≈) assume the structure as drawn.

Conditions in the first data set: not given
Molecule `O=C(NN=C1C=CC(=NO)C=C1)c1ccccc1` registered a solubility of 20.7 µM (≈ 5 µg/mL). This counts as double-digit micromolar.
`O=c1[nH]cc(Br)c(=O)[nH]1` gave a solubility of 4270 µM (≈ 815 µg/mL).
The molecule `C=C(C)C(=O)Nc1ccc(Cl)c(Cl)c1` gave a solubility of 36.9 µM (≈ 8.5 µg/mL).
As for `CCCN(CCC)c1c([N+](=O)[O-])cc(C)cc1[N+](=O)[O-]`, the solubility turned out to be 1080 µM (≈ 304 µg/mL). Against the preceding molecule, the solubility is about 29-fold higher.
`CCOP(=O)(OCC)Oc1cc(C)[nH]n1`: the solubility turned out to be 4270 µM (≈ 1000 µg/mL).
On the same count and under the same terms, the same measure for `COCCNC(=O)CSP(=S)(OC)OC`: 73200 µM (≈ 20000 µg/mL).

Staying with this data set, now noted: 20 °C.
In the case of `c1cc[n+]2c(c1)-c1cccc[n+]1CC2`, the solubility was 376 µM.

Staying with this data set, now noted: 21 °C.
Molecule `CNc1nc(NC(C)C)nc(OC)n1` registered a solubility of 17700 µM (≈ 3500 µg/mL).

The same data set, now with this note: 25 °C.
In turn, `CC(Cl)=CCl` yielded a solubility of 24300 µM (≈ 2700 µg/mL).
On the same count and under the same terms, the same measure for `C/C=C(/C)C(=O)O[C@H]1CC[C@@]2(C)[C@@H]3CC[C@H]4[C@]5(O)C[C@H](O)[C@@]6(O)[C@@H](CN7C[C@@H](C)CC[C@H]7[C@@]6(C)O)[C@]5(O)C[C@@]42O[C@]13O`: 963 µM (≈ 570 µg/mL); for `CCOP(=O)(OC=CCl)OCC`: 46600 µM (≈ 10000 µg/mL); for `Cc1nn(-c2ccccc2)c(C)c1N=O`: 184 µM (≈ 37 µg/mL).

In general, solubility refers to the concentration that dissolves in the medium under given conditions.
